From ChEMBL document CHEMBL1201862, “PubChem BioAssay data set” (2004) come the findings set out here.

Molecules are shown by their SMILES.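 How tested: cells in 96-well plates exposed to compound for 48 hours at five concentrations. The concentration for 50% growth inhibition is given as GI50.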 Activity calls are given as the source filed them. Rule as the data show it: active = GI50 up to about 1.1 µM and inactive = higher. Where only a bound is given, the exact number is not on record here.

Some test systems named below: DU-145; HCC 2998; HCT-15; HOP-62; LOX IMVI; MCF7; MDA-MB-231; MDA-MB-435; MOLT-4; NCI/ADR-RES; RPMI-8226; SK-MEL-28; SK-MEL-2; SNB-19; SW-620; U-251; UACC-62; KM12; OVCAR-3; UACC-257.
Common to all, as to assay: DTP human tumour cell line panel, 48 h

The GI50 is the concentration giving 50% growth inhibition. As to `CC(C)SC(NC(=O)C1C(C)(C)CCC1(C)C)C(=O)O` (centres undefined), the GI50 in the test with DU-145 is > 100 µM (inactive); with HCC 2998, > 100 µM (inactive); in the test on HCT-15 it was greater than 100 µM; in the test on HOP-62, > 100 µM (inactive); with LOX IMVI, > 100 µM (inactive); in the test with MCF7 it was > 100 µM (inactive). For the same compound, the GI50 was > 100 µM (inactive) in the test with MDA-MB-231; > 100 µM (inactive) with MDA-MB-435; > 10 µM (inactive) in the test with MOLT-4; > 100 µM (inactive) in the test on NCI/ADR-RES; > 100 µM (inactive) in the test on RPMI-8226; > 100 µM (inactive) in the test with SK-MEL-28. Also, the GI50 with SK-MEL-2, in the test with SNB-19, in the test with SW-620, in the test on U-251 and with UACC-62 was > 100 µM (inactive) in each case.
As to `C/C(=N\Nc1nc2ccccc2s1)c1ccncn1`, the GI50 in the test with DU-145 was 3.54 µM (inactive); with HCC 2998, 4.88 µM (inactive); in the test on HCT-15, 0.661 µM; with HOP-62, 2.28 µM (inactive); with KM12, 1.42 µM (inactive); in the test on MCF7, 0.348 µM (active). Moreover, the GI50 in the test with MDA-MB-231 is 0.499 µM (active); with MDA-MB-435 it was 2.69 µM (inactive); with MOLT-4, 0.145 µM (active); in the test with NCI/ADR-RES, 0.351 µM (active); in the test with OVCAR-3, 0.366 µM (active); in the test on RPMI-8226, 1 µM (active). In addition, the GI50 in the test on SK-MEL-28 is 2 µM (inactive); in the test on SK-MEL-2 it was 8.09 µM (inactive); in the test with SNB-19 it was 3.02 µM (inactive); in the test on SW-620, 0.229 µM (active); in the test on U-251, 1.3 µM (inactive); with UACC-257, 0.719 µM (active). Also, the GI50 in the test with UACC-62 was 1.44 µM (inactive).
Take `Cc1ccc(C(=O)Nc2ccc(CP(=O)(O)O)cc2CP(=O)(O)O)cc1NC(=O)c1cccc(N)c1`: the GI50 with DU-145 was > 100 µM (inactive); in the test with HCC 2998, > 100 µM (inactive); in the test on HCT-15 it was greater than 100 µM; in the test on HOP-62 it was > 100 µM (inactive); in the test on KM12 it was > 100 µM (inactive); in the test with LOX IMVI it was > 100 µM (inactive). The GI50 in the test on MCF7, in the test with MDA-MB-231, with MDA-MB-435, in the test on MOLT-4, with NCI/ADR-RES and in the test with OVCAR-3 was > 100 µM (inactive) in each case. Besides, the GI50 in the test on RPMI-8226, with SK-MEL-28, with SK-MEL-2, with SW-620, in the test with U-251 and in the test with UACC-257 was > 100 µM (inactive) in each case. In addition, in the test on UACC-62, the GI50 is > 100 µM (inactive).
`CC(C)(C)OC(=O)C1CC[C@@H](CC(=O)Oc2ccc([N+](=O)[O-])cc2)N1` (some centres undefined): the GI50 in the test with DU-145 was > 100 µM (inactive); in the test with HCC 2998 it was > 100 µM (inactive); in the test on HCT-15, greater than 100 µM; in the test on KM12 it was > 100 µM (inactive); with LOX IMVI it was > 100 µM (inactive); in the test with MCF7, > 100 µM (inactive). For the same compound, the GI50 in the test with MDA-MB-231, in the test on MDA-MB-435, in the test on MOLT-4, in the test with NCI/ADR-RES, with OVCAR-3 and in the test on RPMI-8226 was > 100 µM (inactive) each time. For the same compound, the GI50 with SK-MEL-28, with SK-MEL-2, with SNB-19, in the test with SW-620, in the test with U-251 and in the test with UACC-257 was > 100 µM (inactive) each time. Also, the GI50 in the test on UACC-62 was > 100 µM (inactive).
